Values quoted from earlier work in US10543256B2, “Stable pharmaceutical formulation comprising a reconstituted pulmonary surfactant composition” (CHIESI FARMACEUTICI S.P.A., priority 2016, dated 2020).

Conditions: at 25° C.

Cl.NC(CO)(CO)CO [TRIS, Tris(hydroxymethyl)aminomethane hydrochloride]
pKa: 8.06
